The data set relates to chorioallantoic membrane (CAM). Description: Effects of homoharringtonine in the early chicken chorioallantoic membrane (CAM) assay. It is filed as in vivo. Conditions: for CAM area, Day 4: Day 4 (start of treatment, matched groups); for CAM area, Day 4 / CAM increase (fold) / Artery length / CAM area, Day 5 / Relative artery length / Relative total vessel length / Relative vein length / Total vessel length / Vein length: mean ± SEM, n = 6; for CAM increase (fold): Day 4 to Day 5; for Artery length / CAM area, Day 5 / Relative artery length / Relative total vessel length / Relative vein length / Total vessel length / Vein length: Day 5. The procedure:
Fertilized chicken eggs (HiChick Breeding Co, Kapunda, South Australia) were incubated for three days at 38° C. On Day 3 the embryos were cracked out of the egg and into a cup made of plastic piping, with plastic film stretched over the top to form a hammock for the egg to be suspended in. Two ml of DMEM containing penicillin and streptomycin was added to each cup prior to the egg being added. A Petri dish on the top maintained sterility. Incubation continued in a humidified 37° C. incubator.
On Day 4 the chorioallantoic membrane (CAM) begins to grow, and pictures were taken of each embryo at ×5 to measure the CAM area using image analysis software (Video Pro 32, Leading Edge Pty Ltd, South Australia). Embryos were then grouped according to their CAM area, with a control embryo in each for comparison. There were four matched embryos, treated with 6.25, 12.5 and 25 ng of homoharringtonine. Grouping is critical as in these early developmental stages changes in the CAM growth are dramatic. Relatively small differences in size on Day 4 translate to large differences in the CAM on Day 5, making it impossible to compare treatments. Substances were applied in methylcellulose discs, which were first dried under vacuum overnight. The methylcellulose discs were applied to the top of the CAM, and at the beginning of treatment were at least three to four-fold bigger than the CAM area, meaning treatment covered the entire CAM surface.
On Day 5 skim milk with contrast medium was injected into the CAM. Pictures were then taken at various levels of magnification up to ×63. Quantitative measurements were made from ×5 pictures. CAM area, and vein and artery lengths were measured using image analysis (Video Pro 32, Leading Edge Pty Ltd, South Australia). Relative vessel lengths were then calculated as the total length/CAM area. Statistical analysis was made using SigmaStat and OneWay ANOVA with p<0.05 as the level of significance.
FIG. 3A illustrates the normal organization of the CAM is uniform, with the major vein draining towards the left, and the artery branches coming over the edge of the top and bottom of the CAM. FIGS. 3B and 3C schematically illustrate tracing of the vein and artery branches, as performed for the measurement of vessel lengths.
The angiogenic inhibitor, homoharringtonine, was obtained from ChemGenex Therapeutics, Inc. (Menlo Park, Calif.) and was made to the appropriate concentration in sterile water. […] Homoharringtonine was applied at 6.25, 12.5 and 25 ng (11.3, 22.5 and 45 nM) doses, and compared with water treated controls. Homoharringtonine reduced the growth of the CAM to 42% of the control in the 25 ng treated CAM. […] The vein, artery and total vessel lengths were reduced to 15%, 18% and 17% of control, respectively.

Marks after values point to notes of the source that are not given here.

For `COC(=O)C[C@](O)(CCCC(C)(C)O)C(=O)O[C@@H]1C(OC)=C[C@]23CCCN2CCc2cc4c(cc2[C@H]13)OCO4` [Homoharringtonine, cephalotaxine, 4-methyl-2-hydroxy-2-(4-hydroxy-4-methylpentyl) butanediocate ester], the “CAM area, Day 4” value (6.25 ng in methylcellulose disc) amounted to 6.5 ± 1.6 pixels. Moreover, where the note is “6.25 ng”, the “CAM increase (fold)” value is 7.0 ± 0.4 ^a fold; the Artery length is 1573 ± 516^ pixels; the “CAM area, Day 5” value is recorded as 45.3 ± 11.6 pixels; the Relative artery length was 31.6 ± 4.5 ^a b length/CAM area. In addition, for the setting “6.25 ng”, the “Relative total vessel length” value is 63.2 ± 7.7 ^b length/CAM area, the Relative vein length is 31.6 ± 4.6 ^b length/CAM area, the Total vessel length was 3055 ± 1003 pixels and the Vein length is 1482 ± 499^ pixels. The “CAM area, Day 4” value (12.5 ng in methylcellulose disc) is 6.3 ± 1.6^ pixels. Further, where the note is “12.5 ng”, the “CAM increase (fold)” value was 9.0 ± 1.0 ^b fold; the Artery length is listed as 1787 ± 544 ^ pixels; the “CAM area, Day 5” value was 53.0 ± 11.6^ pixels; the “Relative total vessel length” value is on record as 60.1 ± 7.5 ^b length/CAM area. Also, where the note is “12.5 ng”, the Relative vein length is on record as 28.3 ± 4.4 ^b length/CAM area, the Total vessel length is 3351 ± 953 ^ pixels and the Vein length is recorded as 1564 ± 427 ^ pixels. Moreover, the “embryo survival at 25 ng” value (25 ng dose) was “killed one of the smaller embryos”. Further, for the setting “25 ng group vs water control”, the “artery length, % of control” value was 18%; the “total vessel length, % of control” value was 17%; the “vein length, % of control” value was found to be 15%. Besides, the “CAM area, Day 4” value (25 ng in methylcellulose disc) worked out at 6.2 ± 1.5 pixels. Besides, the “growth of the CAM, % of the control” value (25 ng treated CAM vs water control) is given as 42%. In addition, where the note is “25 ng”, the “CAM increase (fold)” value is recorded as 4.3 ± 0.7 ^a fold; the Artery length is listed as 551 ± 265 ^a pixels; the “CAM area, Day 5” value is 30.2 ± 9.9 ^ pixels; the Relative artery length is reported as 13.0 ± 4.3 ^a length/CAM area. For the same molecule, for the setting “25 ng”, the “Relative total vessel length” value is reported as 24.3 ± 6.7 ^a length/CAM area, the Relative vein length is recorded as 11.3 ± 3.5 ^a length/CAM area, the Total vessel length is 909 ± 396 ^a pixels and the Vein length is 359 ± 143 ^a pixels. Also, for the setting “initial doses, above 25 ng, dose then reduced”, the “embryo survival at the initial doses” value is “resulted in the death of the embryos”.
As to `CC(=O)O[C@H]1C(=O)[C@@]2(C)[C@H]([C@H](OC(=O)c3ccccc3)[C@]3(O)C[C@H](OC(=O)[C@H](O)[C@@H](NC(=O)c4ccccc4)c4ccccc4)C(C)=C1C3(C)C)[C@]1(OC(C)=O)CO[C@@H]1C[C@@H]2O` [taxol], the “qualitative changes at higher magnification (FIG. 5)” value (homoharringtonine 25 ng, taxol dose not given, vs water control) is “diffuse leakage of the red blood cells outside the vessels and the skeletons of larger vessels with no remaining blood flow”.

(Values after patent US20060193893A1, “Medical devices” (ChemGenex Pharmaceuticals, Inc., priority 2005, published 2006).)
